# Measured values: patent US12558334B2, “Controlled nutrient delivery to pancreatic islets using a novel mesoporous silica-based nanoparticle platform” (The Board of Trustees of the Leland Stanford Junior …, priority 2019, dated 2026)
# How the values were obtained:
# islets = conditions: reported in the literature; cited from earlier work
# [1] = reported in the literature; cited from earlier work
# pancreatic islets [2] = assay: Islet function, GSIS assay (insulin secretion); format: cell-based, C57BL/6 mice; conditions: 7 days; glutamine 10 mM; 16.7 mM glucose
# Description: (§1) All mice within this study were treated in accordance with the guidelines approved by the Institutional Animal Care and Use Committee (IACUC) at Stanford University. Animals were housed under conventional conditions having access to food and water ad libitum. Pancreatic islets were isolated from C57BL/6 mice (male, 6-8-week-old, Charles River Laboratories, USA), as previously described.^9 In brief, the common bile duct was cannulated with a 30G needle and the pancreas distended with 3 mL of cold collagenase solution (Fischer Scientific, USA). The pancreas was removed and islets isolated by digesting the pancreas at 37° C. for 10 min. The islets were purified using histopaque-density gradients. […]
# Islets supplemented with PDG-MSNPs were cultured in a humidified incubator under normal conditions (37° C./5% CO2/20% O2). After 7 days of incubation with PDG-MSNPs, the ability of islets to secrete insulin was assessed by exposing them to low glucose (i.e. basal conditions) and high glucose (i.e. stimulated conditions) media (200 μL/well). […] The supernatants were collected at the end of incubation for both basal and stimulated condition and insulin levels were quantified using a mouse insulin ELISA kit (Mercodia Developing Diagnostics, USA). […]
# [3] = tested on: diabetic mice transplanted with islets; assay: Islet transplantation under kidney capsule of STZ diabetic mice, metabolic analysis; format: in vivo, C57BL/6 mice
# pancreatic islets [4] = assay: Islet viability, Live/Dead assay; format: cell-based, C57BL/6 mice; conditions: day 7; glutamine 10 mM
# Description: as §1
# After 7 days of incubation with PDG-MSNPs, the viability of islets was assessed using Live/Dead and 3-(4,5-Dimethylthiazol-2-yl)-2,5-diphenyltetrazolium bromide (MTT) assays. Islets were labeled using fluorescein diacetate (FDA; for live cells (green fluorescence), Thermo Fisher Scientific, USA) and propidium iodide (PI; for dead cells (red fluorescence), Thermo Fisher Scientific, USA) as the Live/Dead staining solution. […] A minimum of 8 islets per experimental group were analyzed using Image-J/FIJI to quantify live and dead fluorescence within islets and the percentage of live islet were presented.
Compound,Cyto-protective effects on islets (islets),Decreased inflammation (islets),Enhanced islet function (islets),Enhanced islet survival (islets),Maintained function of various organs [1],insulin secretion following stimulation with high glucose medium (pancreatic islets [2]) [ng/mL],non-fasting blood glucose level (BGL) ([3]; day 30 post-transplantation) [mg/dL],AUC0-20 min of IPGTT ([3]; fasting IPGTT) [mg·min/dL],"IPGTT peak incremental value following glucose injection ([3]; fasting IPGTT, glucose 2 g/kg i.p., peak at 30 min) [mg/dL]",body weight ([3]; week 4) [g],islet viability (Live/Dead) (pancreatic islets [4]) [%]
N[C@@H](Cc1c[nH]c2ccccc12)C(=O)O [Tryptophan],No,No,Yes,Yes,No,,,,,,
O=C(O)[C@@H]1CCCN1 [Proline],No,No,Yes,No,No,,,,,,
N[C@@H](CCS)C(=O)O [Homocysteine],No,No,No,No,No,,,,,,
NCCCC[C@H](N)C(=O)O [Lysine],No,No,Yes,No,No,,,,,,
N[C@@H](CS)C(=O)O [Cysteine],Yes,No,No,No,No,,,,,,
CSCC[C@H](N)C(=O)O [Methionine],No,No,No,No,No,,,,,,
CC(C)C[C@H](N)C(=O)O [Leucine],Yes,No,Yes,No,,,,,,,
N=C(N)NCCC[C@H](N)C(=O)O [Arginine],No,No,Yes,No,No,,,,,,
C[C@H](N)C(=O)O [Alanine],No,No,Yes,Yes,No,,,,,,
CC[C@H](C)[C@H](N)C(=O)O [Isoleucine],No,No,Yes,No,No,,,,,,
"NC(=O)CC[C@H](N)C(=O)O [Glutamine, glutamine]",Yes,Yes,Yes,Yes,,8.1 ± 0.3,337 ± 84,26935 ± 1347,238 ± 12,20.7 ± 0.9,77.1±2.6
